Laboratory results as given in patent US8450357B2, “Compositions comprising an aryl pyrazole and/or a formamidine, methods and uses thereof” (Merial Limited, priority 2008, dated 2013).
Where two headings read alike, the source gives them in different places.

Legend:
[1] = tested on: fleas (Ctenocephalides felis); assay: Study A: flea efficacy of Compound 1 spot-on formulations in dogs; format: in vivo
Procedure: An initial clinical study was conducted to test the efficacy of Compound 1 (3-cyano-1-(2-chloro-6-fluoro-4-trifluoromethylphenyl)-4-dichlorofluoromethylsulfinyl-5-methyl-1H-pyrazole) against ticks and fleas in various test formulations. Five test groups and an untreated control were evaluated. Each test group included six dogs. Compound was dissolved in a solvent or a combination of two or more solvents at 10% w/w. Test articles were formulated as topical spot-on solutions containing compound 1, 10% w/v in a solvent or a combination of solvents as described above. Dogs were infested with approximately 50 ticks (Rhipicephalus sanguineus) on days −1, 7, 14, 21, 28, 35 and 42. Dogs were also infested with approximately 100 fleas (Ctenocephalides felis) on days −1, 8, 15, 22, 29, 36, and 43. Treatment was applied by parting the hair and applying the formulation directly onto the skin on one spot at the midline of the neck, between the base of the skull and the shoulder blades. The dose rate of each of the topical solutions was 0.1 ml/kg (10 mg/kg) body weight. The efficacy of compound 1 in various formulations is shown Table 2 below.

[2] = tested on: ticks; assay: Efficacy of combination of fipronil with amitraz against ticks on dogs; format: in vivo; conditions: 10 mg/kg BW of actives, topical
Procedure: A fipronil formulation (commercial product) was prepared and stored separately from amitraz. Amitraz was formulated with the same carrier. Both parts, fipronil and amitraz in solvent(s) were stored separately and applied simultaneously. Amounts applied were calculated to keep dose at 10% (w/v) each in final formulation and 10 mg/kg BW of actives in amount applied.
In brief, treatment was applied by parting the hair on the midline of the neck, between the base of the skull and the shoulder blades, and applying the formulation directly onto the skin.

[3] = tested on: adult Rhipicephalus sanguineus ticks; assay: whole plant or invertebrate
Procedure: Fipronil was dissolved in acetone containing 0.019% of a mixture of Triton 152 and Triton 172 (1:3, v/v) and 0.4% DMSO to achieve the desired concentration. Dosages were serially diluted using this same formulation. For treatments containing amitraz, amitraz was added to the above solution to achieve the desired concentration. 0.5 ml of the solution was used to treat 20 ml scintillation vials containing a 0.125″ hole in the cap. […] Filter papers treated with this same solution were placed in the cap and bottom of the treated vial. Vials were capped and held over night at 24° C. and 95% RH after which 10 adult Rhipicephalus sanguineus ticks were placed into each vial. The vials were held under the same conditions mentioned above for the duration of the test. […]

[4] = 4 h, read-out: 4 hour % Mortality Rep 1
[5] = 4 h, read-out: 4 hour % Mortality Rep 2
[6] = 4 h, read-out: 4 hour Avg. % Mortality
[7] = 24 h, read-out: 24 hour % Mortality Rep 1
[8] = 24 h, read-out: 24 hour % Mortality Rep 2
[9] = 24 h, read-out: 24 hour Avg. % Mortality
[10] = 48 h, read-out: 48 hour % Mortality Rep 1
[11] = 48 h, read-out: 48 hour % Mortality Rep 2
[12] = 48 h, read-out: 48 hour Avg. % Mortality

Cc1c([S+]([O-])C(F)(Cl)Cl)c(C#N)nn1-c1c(F)cc(C(F)(F)F)cc1Cl (stereo not shown) [Compound 1, 3-cyano-1-(2-chloro-6-fluoro-4-trifluoromethylphenyl)-4-dichlorofluoromethylsulfinyl-5-methyl-1H-pyrazole]
% Efficacy against fleas ([1]; Day 2, Trt. Group 2: 10 mg/kg in Butyl acetate/octyl acetate): 99.6%
% Efficacy against fleas ([1]; Day 2, Trt. Group 3: 10 mg/kg in Diethylene glycol monoethyl ether (transcutol)/N-methyl-2-pyrrolidone): 96.0%
% Efficacy against fleas ([1]; Day 2, Trt. Group 4: 10 mg/kg in Dipropylene glycol monomethyl ether/butyl acetate): 100%
% Efficacy against fleas ([1]; Day 2, Trt. Group 5: 10 mg/kg in Diisopropyl adipate): 100%
% Efficacy against fleas ([1]; Day 2, Trt. Group 6: 10 mg/kg in Triacetin): 98.0%
% Efficacy against fleas ([1]; Day 9, Trt. Group 2: 10 mg/kg in Butyl acetate/octyl acetate): 100%
% Efficacy against fleas ([1]; Day 9, Trt. Group 3: 10 mg/kg in Diethylene glycol monoethyl ether (transcutol)/N-methyl-2-pyrrolidone): 100%
% Efficacy against fleas ([1]; Day 9, Trt. Group 4: 10 mg/kg in Dipropylene glycol monomethyl ether/butyl acetate): 100%
% Efficacy against fleas ([1]; Day 9, Trt. Group 5: 10 mg/kg in Diisopropyl adipate): 100%
% Efficacy against fleas ([1]; Day 9, Trt. Group 6: 10 mg/kg in Triacetin): 100%
% Efficacy against fleas ([1]; Day 16, Trt. Group 2: 10 mg/kg in Butyl acetate/octyl acetate): 100%
% Efficacy against fleas ([1]; Day 16, Trt. Group 3: 10 mg/kg in Diethylene glycol monoethyl ether (transcutol)/N-methyl-2-pyrrolidone): 99.8%
% Efficacy against fleas ([1]; Day 16, Trt. Group 4: 10 mg/kg in Dipropylene glycol monomethyl ether/butyl acetate): 100%
% Efficacy against fleas ([1]; Day 16, Trt. Group 5: 10 mg/kg in Diisopropyl adipate): 100%
% Efficacy against fleas ([1]; Day 16, Trt. Group 6: 10 mg/kg in Triacetin): 100%
% Efficacy against fleas ([1]; Day 23, Trt. Group 2: 10 mg/kg in Butyl acetate/octyl acetate): 99.4%
% Efficacy against fleas ([1]; Day 23, Trt. Group 3: 10 mg/kg in Diethylene glycol monoethyl ether (transcutol)/N-methyl-2-pyrrolidone): 98.8%
% Efficacy against fleas ([1]; Day 23, Trt. Group 4: 10 mg/kg in Dipropylene glycol monomethyl ether/butyl acetate): 99.5%
% Efficacy against fleas ([1]; Day 23, Trt. Group 5: 10 mg/kg in Diisopropyl adipate): 100%
% Efficacy against fleas ([1]; Day 23, Trt. Group 6: 10 mg/kg in Triacetin): 100%
% Efficacy against fleas ([1]; Day 30, Trt. Group 2: 10 mg/kg in Butyl acetate/octyl acetate): 94.5%
% Efficacy against fleas ([1]; Day 30, Trt. Group 3: 10 mg/kg in Diethylene glycol monoethyl ether (transcutol)/N-methyl-2-pyrrolidone): 91.4%
% Efficacy against fleas ([1]; Day 30, Trt. Group 4: 10 mg/kg in Dipropylene glycol monomethyl ether/butyl acetate): 83.2%
% Efficacy against fleas ([1]; Day 30, Trt. Group 5: 10 mg/kg in Diisopropyl adipate): 92.9%
% Efficacy against fleas ([1]; Day 30, Trt. Group 6: 10 mg/kg in Triacetin): 99.7%
% Efficacy against fleas ([1]; Day 37, Trt. Group 2: 10 mg/kg in Butyl acetate/octyl acetate): 80.4%
% Efficacy against fleas ([1]; Day 37, Trt. Group 3: 10 mg/kg in Diethylene glycol monoethyl ether (transcutol)/N-methyl-2-pyrrolidone): 85.3%
% Efficacy against fleas ([1]; Day 37, Trt. Group 4: 10 mg/kg in Dipropylene glycol monomethyl ether/butyl acetate): 76.5%
% Efficacy against fleas ([1]; Day 37, Trt. Group 5: 10 mg/kg in Diisopropyl adipate): 69.1%
% Efficacy against fleas ([1]; Day 37, Trt. Group 6: 10 mg/kg in Triacetin): 98.9%
% Efficacy against fleas ([1]; Day 44, Trt. Group 2: 10 mg/kg in Butyl acetate/octyl acetate): 46.9%
% Efficacy against fleas ([1]; Day 44, Trt. Group 3: 10 mg/kg in Diethylene glycol monoethyl ether (transcutol)/N-methyl-2-pyrrolidone): 38.9%
% Efficacy against fleas ([1]; Day 44, Trt. Group 4: 10 mg/kg in Dipropylene glycol monomethyl ether/butyl acetate): 31.1%
% Efficacy against fleas ([1]; Day 44, Trt. Group 5: 10 mg/kg in Diisopropyl adipate): 40.3%
% Efficacy against fleas ([1]; Day 44, Trt. Group 6: 10 mg/kg in Triacetin): 93.0%

N#Cc1nn(-c2c(Cl)cc(C(F)(F)F)cc2Cl)c(N)c1[S+]([O-])C(F)(F)F (stereo not shown) [fipronil, 5-amino-3-cyano-1-(2,6-dichloro-4-trifluoromethylphenyl)-4-trifluoromethylsulfinylpyrazole]
Efficacy against ticks ([2]; 2 days after treatment): 90.9%
Efficacy against ticks ([2]; 16 days after treatment): 100%
Efficacy against ticks ([2]; 23 days after treatment): 99.3%
Efficacy against ticks ([2]; 30 days after treatment): 53.9%
Efficacy against ticks ([2]; 37 days after treatment): 43.9%
Efficacy against ticks ([2]; 44 days after treatment): 37.9%
mortality at 0.025 ppm [3, 4]: 0%
mortality at 0.1 ppm [3, 4]: 0%
mortality at 0.4 ppm [3, 4]: 0%
mortality at 1.6 ppm [3, 4]: 0%
mortality at 6.25 ppm [3, 4]: 10%
mortality at 25 ppm [3, 4]: 80%
mortality at 0.025 ppm [3, 5]: 0%
mortality at 0.1 ppm [3, 5]: 0%
mortality at 0.4 ppm [3, 5]: 0%
mortality at 1.6 ppm [3, 5]: 0%
mortality at 6.25 ppm [3, 5]: 20%
mortality at 25 ppm [3, 5]: 90%
mortality at 0.025 ppm [3, 6]: 0%
mortality at 0.1 ppm [3, 6]: 0%
mortality at 0.4 ppm [3, 6]: 0%
mortality at 1.6 ppm [3, 6]: 0%
mortality at 6.25 ppm [3, 6]: 15%
mortality at 25 ppm [3, 6]: 85%
mortality at 0.025 ppm [3, 7]: 0%
mortality at 0.1 ppm [3, 7]: 0%
mortality at 0.4 ppm [3, 7]: 0%
mortality at 6.25 ppm [3, 7]: 100%
mortality at 25 ppm [3, 7]: 100%
mortality at 0.025 ppm [3, 8]: 0%
mortality at 0.1 ppm [3, 8]: 0%
mortality at 0.4 ppm [3, 8]: 0%
mortality at 1.6 ppm [3, 8]: 30%
mortality at 6.25 ppm [3, 8]: 90%
mortality at 25 ppm [3, 8]: 100%
mortality at 0.025 ppm [3, 9]: 0%
mortality at 0.1 ppm [3, 9]: 0%
mortality at 0.4 ppm [3, 9]: 0%
mortality at 1.6 ppm [3, 9]: 50%
mortality at 6.25 ppm [3, 9]: 95%
mortality at 25 ppm [3, 9]: 100%
mortality at 0.025 ppm [3, 10]: 0%
mortality at 0.1 ppm [3, 10]: 0%
mortality at 0.4 ppm [3, 10]: 0%
mortality at 1.6 ppm [3, 10]: 100%
mortality at 6.25 ppm [3, 10]: 100%
mortality at 25 ppm [3, 10]: 100%
mortality at 0.025 ppm [3, 11]: 0%
mortality at 0.1 ppm [3, 11]: 0%
mortality at 0.4 ppm [3, 11]: 0%
mortality at 1.6 ppm [3, 11]: 70%
mortality at 6.25 ppm [3, 11]: 90%
mortality at 25 ppm [3, 11]: 100%
mortality at 0.025 ppm [3, 12]: 0%
mortality at 0.1 ppm [3, 12]: 0%
mortality at 0.4 ppm [3, 12]: 0%
mortality at 1.6 ppm [3, 12]: 85%
mortality at 6.25 ppm [3, 12]: 95%
mortality at 25 ppm [3, 12]: 100%
